Patent publication US20090176891A1, “DENTAL COMPOSITION AND METHOD OF USE” (priority 2007, published 2009)
Read-outs that look alike come from different tables or passages of the source.

Columns and labels:
[1] = tested on: common bacteria associated with failed root canal therapy; assay: Drug efficacy: zones of inhibition on agar plates; format: cell-based
Method: FIG. 6 is graph showing the antimicrobial efficacy of various dose strengths of CHX on bacterial growth on agar plates. The efficacy of the eluted amounts of CHX was tested to evaluate anti-microbial activity at various dose strengths compared to a positive control (Ampicillin). This pilot study was done to obtain a range of CHX elution amounts by weight required to kill common bacteria associated with failed root canal therapy.

[2] = species not given; cited from earlier work
RAT = details: cited from earlier work

Q: With `CC1(C)S[C@@H]2[C@H](NC(=O)[C@H](N)c3ccccc3)C(=O)N2[C@H]1C(=O)O` [Ampicillin] as the compound, how does the zone of inhibition at 10000 µg/disc ([1]; 10 mg, positive control) read?
A: 14.5 mm

Q: Which results are given for `[H]/N=C(\N/C(=N/[H])NCCCCCCNC(=N)NC(=N)Nc1ccc(Cl)cc1)Nc1ccc(Cl)cc1` [CHX, chlorohexidine]?
A: antimicrobial effect ([1]; 4 μg, compared with water (negative control)): some antimicrobial effect can be seen; zones of inhibition compared with Ampicillin ([1]; 31 to 250 μg): equal to or better than that of Ampicillin; zone of inhibition at 0.5 µg/disc ([1]; dose 0.5 μg): 0 mm; zone of inhibition at 1 µg/disc ([1]; dose 1 μg): 0 mm; zone of inhibition at 2 µg/disc ([1]; dose 2 μg): 0 mm; zone of inhibition at 4 µg/disc ([1]; dose 4 μg): 7 mm; zone of inhibition at 7.8 µg/disc ([1]; dose 7.8 μg): 9 mm; zone of inhibition at 15.6 µg/disc ([1]; dose 15.6 μg): 12.3 mm; zone of inhibition at 31.25 µg/disc ([1]; dose 31.25 μg): 14.3 mm; zone of inhibition at 62.5 µg/disc ([1]; dose 62.5 μg): 16.7 mm; zone of inhibition at 125 µg/disc ([1]; dose 125 μg): 16.3 mm; zone of inhibition at 250 µg/disc ([1]; dose 250 μg): 17.3 mm; LD50 [2]: 2000 mg/kg

Q: With `CCOC(=O)c1ccc(N(C)C)cc1` [I3, Ethyl-4-N,N-dimethylaminobenzoate] as the compound, how does the LD50 (RAT; RAT) read?
A: 2000 mg/kg

Q: With `C=C(C)C(=O)OCCN(C)C` [I4, N,N-Dimethylaminoethyl Methacrylate] as the compound, how does the LD50 (RAT; RAT ORAL) read?
A: 1751 mg/kg

Q: Which LD50 [2] does the source give for `[Cl-].c1ccc([I+]c2ccccc2)cc1` [I5, Diphenyliodonium chloride] here?
A: 60 mg/kg

Q: With `C=C(C)C(=O)OCC(O)COc1ccc(C(C)(C)c2ccc(OCC(O)COC(=O)C(=C)C)cc2)cc1` (centres unmarked) [M3, 2,2-bis[p-(2-hydroxy-3-methacryloxypropoxy)phenyl]propane] as the compound, how does the LD50 (RAT; RAT) read?
A: > 5000 mg/kg

Q: Which LD50 [2] does the source give for `C=C(C)C(=O)OCCOCCOCCOC(=O)C(=C)C` [M4, triethylene glycol dimethacrylate] here?
A: 10750 mg/kg

Q: Which LD50 [2] does the source give for `C=C(C)C(=O)OCCO` [M5, hydroxyl ethyl methacrylate] here?
A: 4680 mg/kg
